Data taken from patent US7713994B2 (Wyeth LLC, priority 2005, dated 2010).
Read-outs that look alike come from different tables or passages of the source.

Tests used:
cyclin D1/cdk 4 enzyme = biological target: T1, cyclin D1/cdk 4 enzyme (Homo sapiens, UniProt P11802); experiment: CDK4 ELISA kinase assay (phospho-Rb ser 795 detection); assay type: biochemical
T1 construct: made in house; host or cells: Sf9 insect cells, recombinant baculovirus
How it was run: (§1)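 Wells were coated overnight with GST-Rb C-terminal fragment, then blocked. Compound (10 ug/ml final) and cyclin/CDK enzyme from baculovirus-infected Sf9 cells with 200 μM ATP reacted 1 h at 30° C. Ser795 phosphorylation was detected by ELISA at 450 nm.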

cyclin E/CDK2 enzyme = biological target: T2, cyclin E/CDK2 enzyme (Homo sapiens, UniProt P24941); experiment: CDK2 ELISA kinase assay (phospho-Rb ser 795 detection); assay type: biochemical
T2 construct: made in house; host or cells: Sf9 insect cells, recombinant baculovirus
How it was run: as §1

cyclin B/CDK1 enzyme = biological target: T3, cyclin B/CDK1 enzyme (Homo sapiens, UniProt P06493); experiment: CDK1 ELISA kinase assay (phospho-Rb ser 795 detection); assay type: biochemical
T3 construct: purchased New England BioLabs; host or cells: Sf9 insect cells, recombinant baculovirus
T3 sequence (P06493 whole entry): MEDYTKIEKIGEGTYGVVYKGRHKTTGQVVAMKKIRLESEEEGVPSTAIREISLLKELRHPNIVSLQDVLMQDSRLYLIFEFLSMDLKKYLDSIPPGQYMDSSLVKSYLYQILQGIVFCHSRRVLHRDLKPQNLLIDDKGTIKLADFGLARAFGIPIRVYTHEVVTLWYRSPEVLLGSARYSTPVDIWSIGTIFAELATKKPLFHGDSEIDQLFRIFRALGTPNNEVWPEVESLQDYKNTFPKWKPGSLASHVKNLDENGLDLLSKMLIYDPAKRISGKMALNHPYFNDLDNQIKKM
T3 sequence (P14635 whole entry partner): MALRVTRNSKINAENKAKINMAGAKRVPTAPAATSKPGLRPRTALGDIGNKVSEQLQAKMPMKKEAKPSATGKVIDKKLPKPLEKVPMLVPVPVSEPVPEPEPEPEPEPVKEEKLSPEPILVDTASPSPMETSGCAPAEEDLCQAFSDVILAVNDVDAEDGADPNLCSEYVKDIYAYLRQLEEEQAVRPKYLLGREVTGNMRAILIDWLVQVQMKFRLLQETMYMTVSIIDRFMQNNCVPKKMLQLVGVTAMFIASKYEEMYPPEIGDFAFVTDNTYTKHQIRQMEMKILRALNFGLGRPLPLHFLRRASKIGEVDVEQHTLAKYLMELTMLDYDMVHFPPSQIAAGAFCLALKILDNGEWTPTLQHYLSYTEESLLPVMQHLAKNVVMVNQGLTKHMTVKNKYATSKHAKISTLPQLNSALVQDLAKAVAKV
How it was run: as §1

BT474 = experiment: Cytotoxicity assay (SRB), BT474; assay type: cell-based
How it was run: (§2)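 Plate cells, let them attach overnight, add compound dilutions in RPMI 1640/5% FBS, and incubate 3 days (BT474 6 days). Then fix with TCA, stain with SRB, dissolve the dye in Tris and read at 540 nm.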

HCT-116 = experiment: Cytotoxicity assay (SRB), HCT-116; assay type: cell-based; conditions: Homo sapiens, HCT-116, 72 h, HCT116 cells, SRB, read-out: In Vitro Cellular Activity IC50 HCT116
How it was run: as §2

LoVo = experiment: Cytotoxicity assay (SRB), LoVo; assay type: cell-based; conditions: Homo sapiens, LoVo, 72 h, LoVo cells, SRB, read-out: In Vitro Cellular Activity IC50 LOVO
How it was run: as §2

MCF-7 = experiment: Cytotoxicity assay (SRB), MCF-7; assay type: cell-based; conditions: Homo sapiens, MCF7, 72 h, MCF-7 cells, SRB, read-out: In Vitro Cellular Activity IC50 MCF-7
How it was run: as §2

[1] = In Vitro Enzyme Assays, 200 μM ATP, read-out: CDK4 IC50
[2] = In Vitro Enzyme Assays, read-out: CDK2 IC50
[3] = In Vitro Enzyme Assays, read-out: CDK1 IC50
[4] = Homo sapiens, BT-474, 144 h, BT474 cells, SRB, 6 days; read-out: In Vitro Cellular Activity IC50 BT474
[5] = In Vitro Enzyme Assay, cyclin D1/cdk 4, read-out: CDK4 IC50
[6] = In Vitro Enzyme Assay, cyclin E/CDK2, read-out: CDK2 IC50
[7] = In Vitro Enzyme Assay, cyclin B/CDK1, read-out: CDK1 IC50
[8] = Homo sapiens, BT-474, 144 h, BT474 cells, 6 days, SRB; read-out: In Vitro Cellular Activity IC50 BT474

T1 sequence (P11802 whole entry, species assumed): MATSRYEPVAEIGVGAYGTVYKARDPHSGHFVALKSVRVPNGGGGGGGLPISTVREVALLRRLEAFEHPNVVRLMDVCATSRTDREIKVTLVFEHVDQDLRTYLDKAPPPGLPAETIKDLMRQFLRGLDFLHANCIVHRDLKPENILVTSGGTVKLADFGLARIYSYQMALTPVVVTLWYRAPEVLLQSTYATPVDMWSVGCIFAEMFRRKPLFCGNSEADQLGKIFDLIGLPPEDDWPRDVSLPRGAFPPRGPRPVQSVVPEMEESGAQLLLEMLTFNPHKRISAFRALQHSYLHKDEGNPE
T1 sequence (P24385 whole entry partner, species assumed): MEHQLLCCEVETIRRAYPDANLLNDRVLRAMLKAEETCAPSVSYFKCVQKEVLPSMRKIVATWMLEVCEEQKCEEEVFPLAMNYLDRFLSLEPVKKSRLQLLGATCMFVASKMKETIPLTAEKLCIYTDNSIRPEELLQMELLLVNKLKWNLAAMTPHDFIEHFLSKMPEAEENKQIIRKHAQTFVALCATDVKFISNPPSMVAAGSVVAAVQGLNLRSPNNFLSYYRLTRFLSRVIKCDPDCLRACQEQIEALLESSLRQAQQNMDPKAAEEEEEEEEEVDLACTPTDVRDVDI

| Compound | IC50 (cyclin D1/cdk 4 enzyme; [1]) [µM] | IC50 (cyclin E/CDK2 enzyme; [2]) [µM] | IC50 (cyclin B/CDK1 enzyme; [3]) [µM] | IC50 (BT474; [4]) [µM] | IC50 (HCT-116; three days) [µM] | IC50 (LoVo; three days) [µM] | IC50 (MCF-7; three days) [µM] | melting point | IC50 (cyclin D1/cdk 4 enzyme; [5]) [µM] | IC50 (cyclin E/CDK2 enzyme; [6]) [µM] | IC50 (cyclin B/CDK1 enzyme; [7]) [µM] | IC50 (BT474; [8]) [µM] | IC50 (HCT-116; 3 days) [µM] | IC50 (LoVo; 3 days) [µM] | IC50 (MCF-7; 3 days) [µM] |
| --- | --- | --- | --- | --- | --- | --- | --- | --- | --- | --- | --- | --- | --- | --- | --- |
| CN1CCN(c2ccc(N/C=C3\C(=O)NC(=O)c4ccc(-c5ccc(F)cc5)cc43)cc2F)CC1 [Example 290, (4Z)-4-({[3-Fluoro-4-(4-methylpiperazin-1-yl)phenyl]amino}methylene)-6-(4-fluorophenyl)isoquinoline-1,3(2H,4H)-dione] | 0.32 | > 50 | > 50 | 2.5 | 1.8 | 5.4 | 2.3 | 166 to 167 °C | – | – | – | – | – | – | – |
| COC[C@H]1CCCN1Cc1ccc(N/C=C2\C(=O)NC(=O)c3ccc(-c4ccsc4)cc32)cc1 [Example 331, (4Z)-4-{[(4-{[(2R)-2-(Methoxymethyl)pyrrolidin-1-yl]methyl}phenyl)amino]methylene}-6-thien-3-ylisoquinoline-1,3(2H,4H)-dione] | 0.17 | > 50 | > 50 | 3.3 | 1.5 | 3 | 1.7 | 95 to 96 °C | – | – | – | – | – | – | – |
| CN1CCN(c2cnc(N/C=C3\C(=O)NC(=O)c4ccc(-c5ccoc5)cc43)cn2)CC1 [Example 508, (4Z)-6-(3-Furyl)-4-({[5-(4-methylpiperazin-1-yl)pyrazin-2-yl]amino}methylene)isoquinoline-1,3(2H,4H)-dione] | – | – | – | – | – | – | – | 226 to 227 °C | 1.3 | > 50 | 2.2 | 3 | 0.95 | 1.1 | 1.3 |
| O=C1NC(=O)c2ccc(-n3cccc3)cc2C1=CNCc1cc(=O)c(O)co1 [Example 312, 4-{[(5-Hydroxy-4-oxo-4H-pyran-2-ylmethyl)-amino]-methylene}-6-pyrrol-1-yl-4H-isoquinoline-1,3-dione] | 0.27 | 21.6 | > 50 | 39 | > 50 | > 50 | > 50 | 310 to 312 °C (dec.) | – | – | – | – | – | – | – |
| O=C1NC(=O)c2ccc(Br)cc2/C1=C/NCc1ccc(OC(F)F)c(O)c1 [Example 180] | 0.07 | > 50 | > 50 | 5.1 | 5.9 | 6.2 | 15 | 256 to 258 °C | – | – | – | – | – | – | – |
| O=C1NC(=O)c2ccc(Br)cc2/C1=C/Nc1ccc(N2CCC(N3CCCC3)CC2)nc1 [Example 407, (4Z)-6-Bromo-4-({[6-(4-pyrrolidin-1-ylpiperidin-1-yl)pyridin-3-yl]amino}methylene)isoquinoline-1,3(2H,4H)-dione] | 1.6 | > 50 | > 50 | – | – | – | – | 214 to 215 °C | – | – | – | 10.2 | 3.8 | 8.5 | 9.7 |
| COc1cc2c(cc1-c1ccoc1)/C(=C/Nc1ccc(N3CCN(C)CC3)cc1)C(=O)NC2=O [Example 254, 6-Furan-3-yl-7-methoxy-4-{[4-(4-methyl-piperazin-1-yl)-phenylamino]-methylene}-4H-isoquinoline-1,3-dione] | 7.4 | > 50 | > 50 | 2.1 | 2 | 4.8 | 2.4 | 198 to 220 °C | – | – | – | – | – | – | – |
| CO[C@@H]1CCN(Cc2ccc(N/C=C3\C(=O)NC(=O)c4ccc(I)cc43)cc2)C1 [Example 264, (4Z)-6-Iodo-4-{[(4-{[(3R)-3-methoxypyrrolidin-1-yl]methyl}phenyl)amino]methylene}isoquinoline-1,3(2H,4H)-dione] | 1 | > 50 | > 50 | 2.2 | 4.4 | 8.8 | 2 | 160 to 161 °C | – | – | – | – | – | – | – |
| CN1CCN(c2ccc(N/C=C3\C(=O)NC(=O)c4ccc(NS(=O)(=O)c5ccccc5)cc43)cc2)CC1 [Example 188, 1,2,3,4-Tetrahydroisoquinolin-6-yl]benzenesulfonamide′N-[(4Z)-4-({[4-(4-methylpiperazin-1-yl)phenyl]amino}methylene)-1,3-dioxo] | 33.2 | 39.7 | 24.2 | 3.3 | 2.2 | 11 | 12 | 289 to 290 °C | – | – | – | – | – | – | – |
| Cc1ccc(C)n1-c1ccc2c(c1)/C(=C/Nc1ccc(N3CCN(C)CC3)cc1)C(=O)NC2=O [Example 226, (4Z)-6-(2,5-Dimethyl-1H-pyrrol-1-yl)-4-({[4-(4-methylpiperazin-1-′yl)phenyl]amino}methylene)isoquinoline-1,3(2H,4H)-dione] | 0.4 | 2.4 | > 50 | 3.3 | 2.4 | 4.4 | 5.2 | 264 to 265 °C | – | – | – | – | – | – | – |
| CN1CCN(c2ccc(N/C=C3\C(=O)NC(=O)c4ccc(-c5coc(C=O)c5)cc43)nc2)CC1 [Example 448, 4-[(4Z)-4-({[5-(4-Methylpiperazin-1-yl)pyridin-2-yl]amino}methylene)-1,3-dioxo-1,2,3,4-tetrahydroisoquinolin-6-yl]-2-furaldehyde] | 0.04 | > 50 | 10 | – | – | – | – | 183 to 184 °C | – | – | – | 6.6 | 2.4 | 4.1 | 5 |
| O=C1NC(=O)c2ccc(-c3ccc(F)cc3)cc2/C1=C/Nc1ccc(CN2CCCC2)cc1 [Example 127, (4Z)-6-(4-Fluorophenyl)-4-({[4-(pyrrolidin-1-ylmethyl)phenyl]amino}methylene)isoquinoline-1,3(2H,4H)-dione] | 0.37 | > 50 | > 50 | 1.4 | 1.3 | 2.9 | 1.4 | 152 to 153 °C | – | – | – | – | – | – | – |
| CCCOc1cnc(CN/C=C2\C(=O)NC(=O)c3ccc(-c4ccco4)cc32)cc1O [Example 502, 6-Furan-2-yl-4-{[(4-hydroxy-5-propoxy-pyridin-2-ylmethyl)-amino]-methylene}-4H-isoquinoline-1,3-dione] | – | – | – | – | – | – | – | 288 to 290 °C (dec.) | < 0.005 | 2.8 | 20.2 | 0.69 | 1.4 | 0.96 | 1.2 |
| O=C1NC(=O)c2ccc(-c3ccoc3)cc2C1=NNc1ccc(CN2CCCCC2)cc1 [Example 156, 6-Furan-3-yl-4-[(4-piperidin-1-ylmethyl-phenyl)-hydrazono]-4H-isoquinoline-1,3-dione] | 0.04 | > 50 | > 50 | 2.6 | 2.5 | 6.4 | 1.5 | 223 to 225 °C (dec.) | – | – | – | – | – | – | – |
| CN(C)Cc1ccc(N/C=C2\C(=O)NC(=O)c3ccc(Br)cc32)cc1 [Example 73] | 0.83 | 7.7 | 43.5 | 18 | 10 | 13 | 9.3 | 159 to 160 °C | – | – | – | – | – | – | – |
| C[C@@H]1CN(c2ccc(N/C=C3\C(=O)NC(=O)c4ccc(-c5ccoc5)cc43)cc2)C[C@H](C)N1C [Example 241, (4Z)-6-(3-Furyl)-4-[({4-[(3R,5S)-3,4,5-trimethylpiperazin-1-yl]phenyl}amino)-methylene]isoquinoline-1,3(2H,4H)-dione] | 0.45 | > 50 | > 50 | 1.2 | 1.9 | 3.8 | 1.3 | 204 to 205 °C | – | – | – | – | – | – | – |
| C[C@@H]1CN(c2ccc(N/C=C3\C(=O)NC(=O)c4ccc(-c5ccoc5)cc43)cc2F)C[C@H](C)N1 [Example 324, (4Z)-4-[({4-[(3R,5S)-3,5-Dimethylpiperazin-1-yl]-3-fluorophenyl}amino)methylene]-6-(3-furyl)isoquinoline-1,3(2H,4H)-dione] | 0.17 | > 50 | > 50 | 0.74 | 0.96 | 3.3 | 0.83 | 222 to 223 °C | – | – | – | – | – | – | – |
